Test: Stability studies of amorphous zafirlukast under storage/stress conditions (XRD)
Format: physicochemical
Text: A sample of amorphous zafirlukast prepared using the above process was subjected to different conditions to determine the stability of the mixture under stress conditions.
The sample was packed in a clear polyethylene bag, tied with a tag, placed in a black polyethylene bag along with a silica pouch, which was filled with nitrogen, then sealed in a triple laminated bag, and finally sealed and stored in an HDPE drum.

Measured: Solid-form stability (XRD spectra) after storage

4-(5-cyclopentyloxy-carbonylamino-1-methyl-indol-3-ylmethyl)-3-methoxy-N-O-tolylsulfonylbenzamide [Amorphous form]
No change in XRD spectra: Long-term storage for 3 months, packed in polyethylene bags with silica pouch under nitrogen, triple laminated bag, HDPE drum | Storage at 25 + 5 C. and 60 + 5% RH, same packing | Storage at 40 + 5 C. and 70 + 5% RH, same packing

From patent US20090149662A1, “PROCESSES FOR PREPARING ZAFIRLUKAST” (priority 2007, published 2009)
